Where “and” joins values, the source holds several entries; their conditions need not be identical. Identical values can stand only once.
Columns and labels:
Assay in all cases: cell-based
hNav1.7 [1] = molecular target: T1, hNav1.7 (Homo sapiens, UniProt Q15858); format: cell-based; conditions: ratio of PX tonic IC50 values; Table 11
hNav1.7 [2] = molecular target: T1, hNav1.7; conditions: ratio of IonWorks Quattro IC50 values
hNav1.6 = hNav1.6 (Homo sapiens, UniProt Q9UQD0); format: cell-based; conditions: PatchXpress
Chain of hNav1.6 (Q9UQD0 whole entry): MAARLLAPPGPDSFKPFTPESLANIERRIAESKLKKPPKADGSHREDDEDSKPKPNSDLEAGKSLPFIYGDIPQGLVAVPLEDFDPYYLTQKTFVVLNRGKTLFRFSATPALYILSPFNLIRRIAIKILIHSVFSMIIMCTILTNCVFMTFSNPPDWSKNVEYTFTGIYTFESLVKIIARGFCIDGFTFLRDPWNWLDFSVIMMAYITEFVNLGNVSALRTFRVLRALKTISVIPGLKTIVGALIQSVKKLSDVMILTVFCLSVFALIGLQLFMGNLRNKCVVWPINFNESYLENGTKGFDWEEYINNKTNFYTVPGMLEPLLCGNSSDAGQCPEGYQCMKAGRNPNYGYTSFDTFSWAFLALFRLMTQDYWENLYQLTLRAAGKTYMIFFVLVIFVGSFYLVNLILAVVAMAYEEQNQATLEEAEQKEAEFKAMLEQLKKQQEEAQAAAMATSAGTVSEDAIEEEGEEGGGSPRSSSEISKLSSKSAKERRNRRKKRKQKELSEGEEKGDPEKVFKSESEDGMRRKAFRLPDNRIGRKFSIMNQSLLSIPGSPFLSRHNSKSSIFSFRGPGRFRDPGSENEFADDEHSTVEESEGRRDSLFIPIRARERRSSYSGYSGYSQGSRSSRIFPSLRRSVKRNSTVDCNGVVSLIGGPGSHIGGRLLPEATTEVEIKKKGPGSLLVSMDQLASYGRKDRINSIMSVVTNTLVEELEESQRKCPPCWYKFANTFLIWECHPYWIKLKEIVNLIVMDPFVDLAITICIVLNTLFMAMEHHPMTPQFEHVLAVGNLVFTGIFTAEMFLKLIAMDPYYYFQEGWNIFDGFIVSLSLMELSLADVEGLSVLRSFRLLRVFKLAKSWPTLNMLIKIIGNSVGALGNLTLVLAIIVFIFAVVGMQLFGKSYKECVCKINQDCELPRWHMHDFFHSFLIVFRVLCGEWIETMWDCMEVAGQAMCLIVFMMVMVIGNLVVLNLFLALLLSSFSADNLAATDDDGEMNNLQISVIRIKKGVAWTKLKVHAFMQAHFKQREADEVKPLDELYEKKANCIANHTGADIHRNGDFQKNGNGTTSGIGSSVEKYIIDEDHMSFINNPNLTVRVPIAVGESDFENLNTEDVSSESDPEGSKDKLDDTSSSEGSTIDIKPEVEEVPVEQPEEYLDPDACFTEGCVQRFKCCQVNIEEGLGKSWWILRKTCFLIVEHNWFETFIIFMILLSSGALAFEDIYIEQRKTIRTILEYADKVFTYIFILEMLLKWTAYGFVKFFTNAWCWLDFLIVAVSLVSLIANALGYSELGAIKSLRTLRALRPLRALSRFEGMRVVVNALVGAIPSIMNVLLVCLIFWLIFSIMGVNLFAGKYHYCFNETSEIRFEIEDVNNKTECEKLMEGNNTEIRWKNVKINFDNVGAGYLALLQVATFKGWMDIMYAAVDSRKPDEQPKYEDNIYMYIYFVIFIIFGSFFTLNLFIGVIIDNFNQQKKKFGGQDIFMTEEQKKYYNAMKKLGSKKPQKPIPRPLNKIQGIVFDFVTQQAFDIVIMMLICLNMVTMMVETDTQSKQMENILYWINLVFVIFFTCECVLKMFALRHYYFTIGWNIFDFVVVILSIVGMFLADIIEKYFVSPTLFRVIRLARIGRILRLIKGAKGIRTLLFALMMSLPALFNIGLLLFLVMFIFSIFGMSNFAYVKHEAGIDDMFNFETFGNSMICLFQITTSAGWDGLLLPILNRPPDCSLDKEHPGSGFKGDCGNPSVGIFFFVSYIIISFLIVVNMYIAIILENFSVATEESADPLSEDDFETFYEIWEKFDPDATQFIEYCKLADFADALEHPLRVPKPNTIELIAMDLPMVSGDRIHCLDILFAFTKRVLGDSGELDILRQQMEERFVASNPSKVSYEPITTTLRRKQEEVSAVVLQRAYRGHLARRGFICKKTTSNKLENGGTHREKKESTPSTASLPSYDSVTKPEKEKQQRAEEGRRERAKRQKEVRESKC

T1 sequence (Q15858 whole entry): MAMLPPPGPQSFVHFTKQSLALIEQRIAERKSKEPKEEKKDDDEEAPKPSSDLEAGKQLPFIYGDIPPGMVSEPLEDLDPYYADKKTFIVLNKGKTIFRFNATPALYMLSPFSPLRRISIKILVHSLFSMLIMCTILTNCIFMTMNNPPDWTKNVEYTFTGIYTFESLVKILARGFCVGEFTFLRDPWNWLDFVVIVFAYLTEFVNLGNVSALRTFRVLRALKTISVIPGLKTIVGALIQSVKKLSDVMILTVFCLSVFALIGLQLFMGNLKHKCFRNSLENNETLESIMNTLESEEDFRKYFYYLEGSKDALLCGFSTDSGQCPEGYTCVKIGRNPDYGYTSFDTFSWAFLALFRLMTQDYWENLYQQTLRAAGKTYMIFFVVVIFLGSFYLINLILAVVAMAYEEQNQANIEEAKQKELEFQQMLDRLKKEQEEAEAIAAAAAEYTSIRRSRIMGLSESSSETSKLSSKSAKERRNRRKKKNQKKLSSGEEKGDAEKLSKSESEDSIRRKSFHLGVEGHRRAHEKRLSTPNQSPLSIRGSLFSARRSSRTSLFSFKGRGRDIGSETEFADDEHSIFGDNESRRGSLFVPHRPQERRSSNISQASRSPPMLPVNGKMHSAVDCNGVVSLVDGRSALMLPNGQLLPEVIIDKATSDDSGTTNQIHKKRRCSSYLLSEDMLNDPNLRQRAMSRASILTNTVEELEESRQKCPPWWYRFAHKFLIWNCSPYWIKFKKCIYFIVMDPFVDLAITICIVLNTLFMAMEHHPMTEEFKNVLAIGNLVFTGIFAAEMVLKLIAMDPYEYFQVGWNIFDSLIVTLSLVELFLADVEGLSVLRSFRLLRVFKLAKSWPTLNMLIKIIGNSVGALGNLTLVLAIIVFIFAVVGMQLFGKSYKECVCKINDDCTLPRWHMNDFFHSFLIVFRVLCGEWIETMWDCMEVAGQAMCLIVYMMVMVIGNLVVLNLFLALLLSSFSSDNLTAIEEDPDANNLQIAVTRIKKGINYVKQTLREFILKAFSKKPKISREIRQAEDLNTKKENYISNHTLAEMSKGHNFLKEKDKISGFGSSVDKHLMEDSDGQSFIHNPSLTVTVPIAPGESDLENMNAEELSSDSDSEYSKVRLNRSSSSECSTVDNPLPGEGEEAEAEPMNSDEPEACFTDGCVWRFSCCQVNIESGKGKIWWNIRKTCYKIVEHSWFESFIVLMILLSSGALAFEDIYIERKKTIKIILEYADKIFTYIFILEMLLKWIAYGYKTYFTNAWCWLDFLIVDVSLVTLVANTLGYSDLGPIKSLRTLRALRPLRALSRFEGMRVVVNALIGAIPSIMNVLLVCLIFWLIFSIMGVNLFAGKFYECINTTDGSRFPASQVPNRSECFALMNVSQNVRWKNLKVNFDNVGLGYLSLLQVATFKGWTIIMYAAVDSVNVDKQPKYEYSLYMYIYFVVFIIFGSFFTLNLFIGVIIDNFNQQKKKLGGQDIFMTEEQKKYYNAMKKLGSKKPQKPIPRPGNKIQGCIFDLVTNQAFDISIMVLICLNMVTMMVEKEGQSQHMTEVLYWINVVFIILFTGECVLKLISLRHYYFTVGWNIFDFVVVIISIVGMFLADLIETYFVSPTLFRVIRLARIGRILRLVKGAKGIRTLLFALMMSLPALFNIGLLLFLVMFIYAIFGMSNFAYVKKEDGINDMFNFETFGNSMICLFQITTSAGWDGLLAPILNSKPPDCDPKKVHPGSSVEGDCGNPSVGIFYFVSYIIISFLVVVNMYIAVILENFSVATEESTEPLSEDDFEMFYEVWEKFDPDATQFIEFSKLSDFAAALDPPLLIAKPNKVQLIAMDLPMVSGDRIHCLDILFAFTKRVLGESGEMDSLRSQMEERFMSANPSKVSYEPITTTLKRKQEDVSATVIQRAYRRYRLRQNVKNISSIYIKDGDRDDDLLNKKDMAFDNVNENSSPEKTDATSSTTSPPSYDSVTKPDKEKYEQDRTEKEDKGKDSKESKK

SMILES	Nav1.4/Nav1.7 (hNav1.7 [1])	Nav1.5/Nav1.7 (hNav1.7 [1])	Nav1.4/Nav1.7 (hNav1.7 [2]; Table 8)	Nav1.4/Nav1.7 (hNav1.7 [2]; Nav1.4 over Nav1.7)	selectivity for Nav1.7 over Nav1.6 (hNav1.6) [fold]
CSCC[C@@H]1NC(=O)[C@H](Cc2c[nH]c3ccccc23)NC(=O)[C@H](CCCCN)NC(=O)[C@H](CCC(N)=O)NC(=O)[C@@H](NC(=O)[C@@H](N)Cc2ccc(O)cc2)CSSC[C@@H]2NC(=O)[C@@H]3CSSC[C@@H](C(=O)N[C@@H](CCCNC(=N)N)C(=O)N[C@@H](CCCCN)C(=O)N[C@@H](Cc4ccc(O)cc4)C(=O)N[C@@H](Cc4cccc5ccccc45)C(N)=O)NC(=O)[C@H](Cc4c[nH]c5ccccc45)NC(=O)[C@H](CC(C)C)NC(=O)[C@H](CCCCN)NC(=O)[C@H](CSSC[C@H](NC(=O)[C@H]([C@@H](C)O)NC(=O)[C@H](Cc4c[nH]c5ccccc45)NC1=O)C(=O)N[C@@H](CC(=O)O)C(=O)N[C@@H](CO)C(=O)N[C@@H](CCCCN)C(=O)N[C@@H](CCCNC(=N)N)C(=O)N[C@@H](C)C(=O)N3)NC(=O)[C@H](CCC(=O)O)NC(=O)[C@H](CC(C)C)NC(=O)CNC(=O)[C@H](CCC(=O)O)NC2=O [compound 232]	372	480	91		
CC[C@H](C)[C@H](NC(=O)[C@@H](NC(=O)[C@H](CCCCN)NC(=O)[C@H](CCCNC(=N)N)NC(=O)[C@@H]1CSSC[C@@H]2NC(=O)[C@H](C)NC(=O)[C@H](CCCNC(=N)N)NC(=O)[C@H](CCCCN)NC(=O)[C@H](CO)NC(=O)[C@H](CC(=O)O)NC(=O)[C@@H]3CSSC[C@H](NC(=O)[C@H](CCC(=O)O)NC(=O)[C@H](CC(C)C)NC(=O)CNC(=O)[C@H](CCC(=O)O)NC(=O)[C@H](CSSC[C@H](NC(=O)[C@@H](N)Cc4ccc(O)cc4)C(=O)N[C@@H](CCC(N)=O)C(=O)N[C@@H](CCCCN)C(=O)N[C@@H](Cc4c[nH]c5ccccc45)C(=O)N[C@@H](CCSC)C(=O)N[C@@H](Cc4c[nH]c5ccccc45)C(=O)N[C@@H]([C@@H](C)O)C(=O)N3)NC2=O)C(=O)N[C@@H](CCCCN)C(=O)N[C@@H](CC(C)C)C(=O)N[C@@H](Cc2c[nH]c3ccccc23)C(=O)N1)C(C)C)C(N)=O [compound 133]	320	1341		51	
CC[C@H](C)[C@H](NC(=O)[C@H](CCC(=O)O)NC(=O)[C@H](CCCCN)NC(=O)[C@H](CCCNC(=N)N)NC(=O)[C@@H]1CSSC[C@@H]2NC(=O)[C@H](C)NC(=O)[C@H](CCCNC(=N)N)NC(=O)[C@H](CCCCN)NC(=O)[C@H](CO)NC(=O)[C@H](CC(=O)O)NC(=O)[C@@H]3CSSC[C@H](NC(=O)[C@H](CCCNC(=N)N)NC(=O)[C@H](CC(C)C)NC(=O)CNC(=O)[C@H](CCC(=O)O)NC(=O)[C@H](CSSC[C@H](NC(=O)[C@@H](N)Cc4ccc(O)cc4)C(=O)N[C@@H](CCC(N)=O)C(=O)N[C@@H](CCCCN)C(=O)N[C@@H](Cc4c[nH]c5ccccc45)C(=O)N[C@@H](CCSC)C(=O)N[C@@H](Cc4c[nH]c5ccccc45)C(=O)N[C@@H]([C@@H](C)O)C(=O)N3)NC2=O)C(=O)N[C@@H](CCCCN)C(=O)N[C@@H](CC(C)C)C(=O)N[C@@H](Cc2c[nH]c3ccccc23)C(=O)N1)C(N)=O [SEQ ID NO: 69, [Glu28]JzTx-V(1-29)]					437
CC[C@H](C)[C@H](NC(=O)[C@@H](NC(=O)[C@H](CCCCN)NC(=O)[C@H](CCCNC(=N)N)NC(=O)[C@@H]1CSSC[C@@H]2NC(=O)[C@H](C)NC(=O)[C@H](CCCNC(=N)N)NC(=O)[C@H](CCCCN)NC(=O)[C@H](CO)NC(=O)[C@H](CC(=O)O)NC(=O)[C@@H]3CSSC[C@H](NC(=O)[C@H](CC(=O)O)NC(=O)[C@H](CC(C)C)NC(=O)CNC(=O)[C@H](CCC(=O)O)NC(=O)[C@H](CSSC[C@H](NC(=O)[C@@H](N)Cc4ccc(O)cc4)C(=O)N[C@@H](CCC(N)=O)C(=O)N[C@@H](CCCCN)C(=O)N[C@@H](Cc4c[nH]c5ccccc45)C(=O)N[C@@H](CCSC)C(=O)N[C@@H](Cc4c[nH]c5ccccc45)C(=O)N[C@@H]([C@@H](C)O)C(=O)N3)NC2=O)C(=O)N[C@@H](CCCCN)C(=O)N[C@@H](CC(C)C)C(=O)N[C@@H](Cc2c[nH]c3ccccc23)C(=O)N1)[C@@H](C)CC)C(N)=O [compound 115]	10	4		53	
CC[C@H](C)[C@H](NC(=O)[C@@H](NC(=O)[C@H](CCCCN)NC(=O)[C@H](CCCNC(=N)N)NC(=O)[C@@H]1CSSC[C@@H]2NC(=O)[C@H](C)NC(=O)[C@H](CCCNC(=N)N)NC(=O)[C@H](CCCCN)NC(=O)[C@H](CO)NC(=O)[C@H](CC(=O)O)NC(=O)[C@@H]3CSSC[C@H](NC(=O)CNC(=O)[C@H](CC(C)C)NC(=O)CNC(=O)[C@H](CCC(=O)O)NC(=O)[C@H](CSSC[C@H](NC(=O)[C@@H](N)Cc4ccc(O)cc4)C(=O)N[C@@H](CCC(N)=O)C(=O)N[C@@H](CCCCN)C(=O)N[C@@H](Cc4c[nH]c5ccccc45)C(=O)N[C@@H](CCSC)C(=O)N[C@@H](Cc4c[nH]c5ccccc45)C(=O)N[C@@H]([C@@H](C)O)C(=O)N3)NC2=O)C(=O)N[C@@H](CCCCN)C(=O)N[C@@H](CC(C)C)C(=O)N[C@@H](Cc2c[nH]c3ccccc23)C(=O)N1)[C@@H](C)CC)C(N)=O [compound 121]	25	1808		29	
CC[C@H](C)[C@H](NC(=O)[C@@H](NC(=O)[C@H](CCCCN)NC(=O)[C@H](CCCNC(=N)N)NC(=O)[C@@H]1CSSC[C@@H]2NC(=O)[C@H](C)NC(=O)[C@H](CCCNC(=N)N)NC(=O)[C@H](CCCCN)NC(=O)[C@H](CO)NC(=O)[C@H](CC(=O)O)NC(=O)[C@@H]3CSSC[C@H](NC(=O)[C@H](Cc4ccc(O)cc4)NC(=O)[C@H](CC(C)C)NC(=O)CNC(=O)[C@H](CCC(=O)O)NC(=O)[C@H](CSSC[C@H](NC(=O)[C@@H](N)Cc4ccc(O)cc4)C(=O)N[C@@H](CCC(N)=O)C(=O)N[C@@H](CCCCN)C(=O)N[C@@H](Cc4c[nH]c5ccccc45)C(=O)N[C@@H](CCSC)C(=O)N[C@@H](Cc4c[nH]c5ccccc45)C(=O)N[C@@H]([C@@H](C)O)C(=O)N3)NC2=O)C(=O)N[C@@H](CCCCN)C(=O)N[C@@H](CC(C)C)C(=O)N[C@@H](Cc2c[nH]c3ccccc23)C(=O)N1)[C@@H](C)CC)C(N)=O [compound 124]	266	>1695		43	
CC[C@H](C)[C@H](NC(=O)[C@H](CCCNC(N)=O)NC(=O)[C@H](CCCCN)NC(=O)[C@H](CCCNC(=N)N)NC(=O)[C@@H]1CSSC[C@@H]2NC(=O)[C@H](C)NC(=O)[C@H](CCCNC(=N)N)NC(=O)[C@H](CCCCN)NC(=O)[C@H](CO)NC(=O)[C@H](CC(=O)O)NC(=O)[C@@H]3CSSC[C@H](NC(=O)[C@H](CCC(=O)O)NC(=O)[C@H](CC(C)C)NC(=O)CNC(=O)[C@H](CCC(=O)O)NC(=O)[C@H](CSSC[C@H](NC(=O)[C@@H](N)Cc4ccc(O)cc4)C(=O)N[C@@H](CCC(N)=O)C(=O)N[C@@H](CCCCN)C(=O)N[C@@H](Cc4c[nH]c5ccccc45)C(=O)N[C@@H](CCSC)C(=O)N[C@@H](Cc4c[nH]c5ccccc45)C(=O)N[C@@H]([C@@H](C)O)C(=O)N3)NC2=O)C(=O)N[C@@H](CCCCN)C(=O)N[C@@H](CC(C)C)C(=O)N[C@@H](Cc2c[nH]c3ccccc23)C(=O)N1)C(N)=O [compound 135]	1075	>1786		46	
CC[C@H](C)[C@H](NC(=O)[C@H](Cc1ccc(O)cc1)NC(=O)[C@H](CCCCN)NC(=O)[C@H](CCCNC(=N)N)NC(=O)[C@@H]1CSSC[C@@H]2NC(=O)[C@H](C)NC(=O)[C@H](CCCNC(=N)N)NC(=O)[C@H](CCCCN)NC(=O)[C@H](CO)NC(=O)[C@H](CC(=O)O)NC(=O)[C@@H]3CSSC[C@H](NC(=O)[C@H](CCC(=O)O)NC(=O)[C@H](CC(C)C)NC(=O)CNC(=O)[C@H](CCC(=O)O)NC(=O)[C@H](CSSC[C@H](NC(=O)[C@@H](N)Cc4ccc(O)cc4)C(=O)N[C@@H](CCC(N)=O)C(=O)N[C@@H](CCCCN)C(=O)N[C@@H](Cc4c[nH]c5ccccc45)C(=O)N[C@@H](CCSC)C(=O)N[C@@H](Cc4c[nH]c5ccccc45)C(=O)N[C@@H]([C@@H](C)O)C(=O)N3)NC2=O)C(=O)N[C@@H](CCCCN)C(=O)N[C@@H](CC(C)C)C(=O)N[C@@H](Cc2c[nH]c3ccccc23)C(=O)N1)C(N)=O [compound 137]	1411	12667		41	
CC[C@H](C)[C@H](NC(=O)[C@H](Cc1ccc(O)cc1)NC(=O)[C@H](CCCCN)NC(=O)[C@H](CCCNC(=N)N)NC(=O)[C@@H]1CSSC[C@@H]2NC(=O)[C@H](C)NC(=O)[C@H](CCCNC(=N)N)NC(=O)[C@H](CCCCN)NC(=O)[C@H](CO)NC(=O)[C@H](CC(=O)O)NC(=O)[C@@H]3CSSC[C@H](NC(=O)[C@H](CCC(=O)O)NC(=O)[C@H](CC(C)C)NC(=O)CNC(=O)[C@H](CCC(=O)O)NC(=O)[C@H](CSSC[C@H](NC(=O)[C@@H](N)Cc4ccc(O)cc4)C(=O)N[C@@H](CCC(N)=O)C(=O)N[C@@H](CCCCN)C(=O)N[C@@H](Cc4ccc(I)cc4)C(=O)N[C@@H](CCSC)C(=O)N[C@@H](Cc4c[nH]c5ccccc45)C(=O)N[C@@H]([C@@H](C)O)C(=O)N3)NC2=O)C(=O)N[C@@H](CCCCN)C(=O)N[C@@H](CC(C)C)C(=O)N[C@@H](Cc2c[nH]c3ccccc23)C(=O)N1)C(N)=O [compound 192]	78	>455	30		
CCC[C@H](NC(=O)[C@H](CCCCN)NC(=O)[C@H](CCCNC(=N)N)NC(=O)[C@@H]1CSSC[C@@H]2NC(=O)[C@H](C)NC(=O)[C@H](CCCNC(=N)N)NC(=O)[C@H](CCCCN)NC(=O)[C@H](CO)NC(=O)[C@H](CC(=O)O)NC(=O)[C@@H]3CSSC[C@H](NC(=O)[C@H](CCC(=O)O)NC(=O)[C@H](CC(C)C)NC(=O)CNC(=O)[C@H](CCC(=O)O)NC(=O)[C@H](CSSC[C@H](NC(=O)[C@@H](N)Cc4ccc(O)cc4)C(=O)N[C@@H](CCC(N)=O)C(=O)N[C@@H](CCCCN)C(=O)N[C@@H](Cc4c[nH]c5ccccc45)C(=O)N[C@@H](CCSC)C(=O)N[C@@H](Cc4c[nH]c5ccccc45)C(=O)N[C@@H]([C@@H](C)O)C(=O)N3)NC2=O)C(=O)N[C@@H](CCCCN)C(=O)N[C@@H](CC(C)C)C(=O)N[C@@H](Cc2c[nH]c3ccccc23)C(=O)N1)C(=O)N[C@H](C(N)=O)[C@@H](C)CC [compound 136]	405	611		66 and 34	
